# Measurements reported in PubChem BioAssay (NCI).
# Several values for one entry are separate records, joined by “and”; a condition that tells them apart may be missing. Equal entries are not always repeated.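 In this assay, cells in 96-well plates receive the compound at five concentrations for 48 hours. Endpoints are linearly interpolated between the surrounding concentrations. At the GI50, growth is halved. TGI denotes the concentration required for complete inhibition of growth.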
# Tests used:
# Assay in all cases: NCI anticancer screen, dose series, 48 h
# RXF-631 renal = test system: RXF-631 renal
# DMS 273 small cell lung = test system: DMS 273 small cell lung
# LXFL 529 NSCLC = test system: LXFL 529 NSCLC
# KM20L2 colon = test system: KM20L2 colon
# SNB-78 CNS = test system: SNB-78 CNS
# XF 498 CNS = test system: XF 498 CNS
# NCI/ADR-RES ovarian = test system: NCI/ADR-RES ovarian
# MDA-MB-435 = test system: MDA-MB-435
# MDA-N = test system: MDA-N
Structure (SMILES),TGI (RXF-631 renal),TGI (DMS 273 small cell lung) [µM],TGI (LXFL 529 NSCLC),TGI (KM20L2 colon),TGI (SNB-78 CNS) [µM],TGI (XF 498 CNS) [µM],GI50 (RXF-631 renal) [µM],GI50 (LXFL 529 NSCLC) [µM],GI50 (SNB-78 CNS) [µM],GI50 (KM20L2 colon) [µM],TGI (NCI/ADR-RES ovarian) [µM],TGI (MDA-MB-435) [µM],TGI (MDA-N) [µM]
CC1CC(=O)Nc2ccc(Cl)cc2N1C(=O)CN1CCC(CCCCN(C)C)CC1 (configuration not stated),> 100 µM,> 100,> 100 µM,> 100 µM,–,–,–,–,–,–,–,–,–
O=C(CCC(=O)Nc1ccccc1C(F)(F)F)N/N=C1\C(=N\NC(=O)CCC(=O)Nc2ccccc2C(F)(F)F)C(c2ccc3c(c2)OCO3)Oc2ccccc21 (configuration not stated),> 100 µM,> 100,–,> 100 µM,> 100,> 87.6,–,–,–,–,–,–,–
O=C1c2c(O)cccc2C(C(=O)CCCCCC(=O)C2c3cccc(O)c3C(=O)c3c(O)cccc32)c2cccc(O)c21,7.98 µM and 13.6 µM,13.3,2.78 µM and 14.2 µM,13.1 µM and 47.6 µM,–,1.2,2.99,7.58,7.55,15.4,–,–,–
Nc1cn(C2OC(CC(c3ccccc3)(c3ccccc3)c3ccccc3)C(O)C2O)c(=O)[nH]c1=O (configuration not stated),> 100 µM,> 100,91.8 µM,42.1 µM,> 100,46.5,–,–,–,–,–,–,–
CCOC(=O)c1oc2c(OC)ccc3c2c1CCC3,> 100 µM,> 100,> 100 µM,> 100 µM,> 100,> 100,–,–,–,–,–,–,–
NCCOc1ccc(/C(=C(/Cl)c2ccccc2)c2ccccc2)cc1,26.3 µM,25.5,20 µM,19.9 µM,25,17.6,–,–,–,–,–,–,–
NC1=NN(c2ccccc2)C(=O)C1C(=O)C(=O)Nc1ccc(Cl)cc1 (configuration not stated),> 100 µM,> 100,> 100 µM,> 100 µM,> 100,–,–,–,–,–,–,–,–
N#CCCN(CCC#N)c1ccc(/C=C(/NC(=O)c2cc([N+](=O)[O-])ccc2Cl)C(=O)N=[N+]=[N-])cc1,> 100 µM,> 100,> 100 µM,> 100 µM,> 100,–,–,–,–,–,–,–,–
CCCCCCCCCCC(=O)CCCCCCC(=O)O,43.3 µM,47.1,40.1 µM,–,> 100,97.8,–,–,–,–,–,–,–
Cc1cc(=O)oc2c(C3=NN(C=O)C(c4ccccc4)C3)c(O)ccc12 (configuration not stated),> 100 µM,> 100,> 100 µM,> 100 µM,> 96,42.1,–,–,–,–,> 100,> 100,> 100
CC(Oc1cc2oc(=O)cc(-c3ccccc3)c2cc1Cl)C(=O)O (configuration not stated),> 100 µM,–,> 100 µM,> 100 µM,> 100,> 100,–,–,–,–,–,–,–
CCCCC(C(=O)C(=O)Nc1ccc(C)cc1C)C(=O)C(C)C (configuration not stated),> 100 µM,> 100,> 100 µM,> 100 µM,> 100,> 100,–,–,–,–,–,–,–
O=C(CCc1nc(=S)[nH][nH]1)Nc1cc(Cl)ccc1Cl,> 100 µM,> 100,> 100 µM,> 100 µM,–,–,–,–,–,–,–,–,–
O=C(NCCCCCCCCCCCCNC(=O)c1cnc2ccccc2n1)c1cnc2ccccc2n1,> 100 µM,> 100,> 100 µM,> 100 µM,> 100,–,–,–,–,–,–,–,–
C/C(=C1/N=C(c2cc([N+](=O)[O-])ccc2Cl)N(c2ccc(Br)cc2)C1=O)c1ccc(N(CCC#N)CCC#N)cc1C,> 100 µM,43.8,> 100 µM,> 100 µM,> 100,> 100,–,–,–,–,–,–,–
CC12Nc3ccccc3C1=C(c1ccccc1)CC1C(=O)OC(=O)C12 (configuration not stated),> 100 µM,> 100,> 100 µM,> 100 µM,> 100,> 100,–,–,–,–,–,–,–
